System: Magnaporthe grisea (Pyricularia oryzae—PYRIOR)
Assay: microbe, parasite or virus in culture
Assay type: cell-based
Conditions: Pyricularia oryzae, read-out: PYRIOR in vitro Growth Inhibition

Question: With `COc1cccc(CNC(=O)c2ncccc2O)c1` [Compound 225] as the molecule, how does the inhibition at 25 ppm read?
Answer: < 80%

Question: With `COc1ccnc(C(=O)Nc2ccc(OC3CC(C)(C)CC(C)(C)C3)cc2)c1O` [Compound 458] as the molecule, how does the inhibition at 25 ppm read?
Answer: < 80%

Question: Which inhibition at 25 ppm does the source give for `O=C(Nc1cccc(Cl)c1)c1ncccc1O` [Compound 212] here?
Answer: > 80%

Question: For `CC1(C)CC(NC(=O)c2conc2O)CC(C)(C)C1` [Compound 560], which inhibition at 25 ppm is on record?
Answer: < 80%

System: Rhizoctonia solani (RHIZSO)
Assay: microbe, parasite or virus in culture
Assay type: cell-based
Conditions: Rhizoctonia solani, read-out: RHIZSO in vitro Growth Inhibition

Question: With `COc1cccc(CNC(=O)c2ncccc2O)c1` [Compound 225] as the molecule, how does the inhibition at 25 ppm read?
Answer: < 80%

Question: For `COc1ccnc(C(=O)Nc2ccc(OC3CC(C)(C)CC(C)(C)C3)cc2)c1O` [Compound 458], which inhibition at 25 ppm is on record?
Answer: < 80%

Question: For `O=C(Nc1cccc(Cl)c1)c1ncccc1O` [Compound 212], which inhibition at 25 ppm is on record?
Answer: < 80%

Question: With `CC1(C)CC(NC(=O)c2conc2O)CC(C)(C)C1` [Compound 560] as the molecule, how does the inhibition at 25 ppm read?
Answer: < 80%

System: Mycosphaerella graminicola (Septoria tritici—SEPTTR)
Assay: In vitro fungal growth inhibition, Mycosphaerella graminicola (SEPTTR)
Assay type: cell-based
Conditions: Zymoseptoria tritici; 25 ppm in growth medium; read-out: SEPTTR in vitro Growth Inhibition

Question: For `COc1cccc(CNC(=O)c2ncccc2O)c1` [Compound 225], which inhibition at 25 ppm is on record?
Answer: < 80%

Question: With `COc1ccnc(C(=O)Nc2ccc(OC3CC(C)(C)CC(C)(C)C3)cc2)c1O` [Compound 458] as the molecule, how does the inhibition at 25 ppm read?
Answer: < 80%

Question: With `O=C(Nc1cccc(Cl)c1)c1ncccc1O` [Compound 212] as the molecule, how does the inhibition at 25 ppm read?
Answer: < 80%

Same assay, conditions: Zymoseptoria tritici; 25 ppm in the growth medium; read-out: SEPTTR in vitro Growth Inhibition

Question: For `CC1(C)CC(NC(=O)c2conc2O)CC(C)(C)C1` [Compound 560], which inhibition at 25 ppm is on record?
Answer: < 80%

System: Stagonospora nodorum (Leptosphaeria nodorum—LEPTNO)
Assay: In vitro fungal growth inhibition, Stagonospora nodorum (LEPTNO)
Assay type: cell-based
Conditions: Leptosphaeria; 25 ppm in growth medium; read-out: LEPTNO in vitro Growth Inhibition

Question: With `COc1cccc(CNC(=O)c2ncccc2O)c1` [Compound 225] as the molecule, how does the inhibition at 25 ppm read?
Answer: < 80%

Question: With `COc1ccnc(C(=O)Nc2ccc(OC3CC(C)(C)CC(C)(C)C3)cc2)c1O` [Compound 458] as the molecule, how does the inhibition at 25 ppm read?
Answer: > 80%

Question: Which inhibition at 25 ppm does the source give for `O=C(Nc1cccc(Cl)c1)c1ncccc1O` [Compound 212] here?
Answer: < 80%

Same assay, conditions: Leptosphaeria; 25 ppm in the growth medium; read-out: LEPTNO in vitro Growth Inhibition

Question: For `CC1(C)CC(NC(=O)c2conc2O)CC(C)(C)C1` [Compound 560], which inhibition at 25 ppm is on record?
Answer: < 80%

System: Ustilago maydis (USTIMA)
Assay: microbe, parasite or virus in culture
Assay type: cell-based
Conditions: Mycosarcoma maydis, read-out: USTIMA in vitro Growth Inhibition

Question: For `COc1cccc(CNC(=O)c2ncccc2O)c1` [Compound 225], which inhibition at 25 ppm is on record?
Answer: < 80%

Question: With `COc1ccnc(C(=O)Nc2ccc(OC3CC(C)(C)CC(C)(C)C3)cc2)c1O` [Compound 458] as the molecule, how does the inhibition at 25 ppm read?
Answer: < 80%

Question: Which inhibition at 25 ppm does the source give for `O=C(Nc1cccc(Cl)c1)c1ncccc1O` [Compound 212] here?
Answer: < 80%

Question: Which inhibition at 25 ppm does the source give for `CC1(C)CC(NC(=O)c2conc2O)CC(C)(C)C1` [Compound 560] here?
Answer: < 80%

System: Phytophthora infestans (PHYTIN)
Assay: microbe, parasite or virus in culture
Assay type: cell-based
Conditions: Phytophthora infestans, read-out: PHYTIN in vitro Growth Inhibition

Question: Which inhibition at 25 ppm does the source give for `COc1cccc(CNC(=O)c2ncccc2O)c1` [Compound 225] here?
Answer: > 80%

Question: For `COc1ccnc(C(=O)Nc2ccc(OC3CC(C)(C)CC(C)(C)C3)cc2)c1O` [Compound 458], which inhibition at 25 ppm is on record?
Answer: < 80%

Question: With `O=C(Nc1cccc(Cl)c1)c1ncccc1O` [Compound 212] as the molecule, how does the inhibition at 25 ppm read?
Answer: < 80%

Question: For `CC1(C)CC(NC(=O)c2conc2O)CC(C)(C)C1` [Compound 560], which inhibition at 25 ppm is on record?
Answer: < 80%

System: Phytophthora infestans—PHYTIN
Assay: whole plant or invertebrate
Assay type: in vivo
Conditions: Phytophthora, in Solanum lycopersicum, 24 h, read-out: PHYTIN in vivo 1 Day Protectant

Question: With `COc1cccc(CNC(=O)c2ncccc2O)c1` [Compound 225] as the molecule, how does the pest or weed control at 100 ppm read?
Answer: < 25%

Question: With `COc1ccnc(C(=O)Nc2ccc(OC3CC(C)(C)CC(C)(C)C3)cc2)c1O` [Compound 458] as the molecule, how does the pest or weed control at 100 ppm read?
Answer: < 25%

Question: For `O=C(Nc1cccc(Cl)c1)c1ncccc1O` [Compound 212], which pest or weed control at 100 ppm is on record?
Answer: < 25%

Question: Which pest or weed control at 100 ppm does the source give for `CC1(C)CC(NC(=O)c2conc2O)CC(C)(C)C1` [Compound 560] here?
Answer: < 25%

System: Puccinia recondita—PUCCRT
Assay: Brown Rust of Wheat, in vivo whole plant, 24 Hour Protectant
Conditions: Puccinia; 100 ppm spray, 24 hour protectant, wheat; control of fungal infection vs untreated plants; read-out: PUCCRT in vivo 1 Day Protectant

Question: With `COc1cccc(CNC(=O)c2ncccc2O)c1` [Compound 225] as the molecule, how does the pest or weed control at 100 ppm read?
Answer: < 25%

Question: Which pest or weed control at 100 ppm does the source give for `O=C(Nc1cccc(Cl)c1)c1ncccc1O` [Compound 212] here?
Answer: < 25%

Same assay, conditions: Puccinia; 100 ppm spray, wheat, 24 hour protectant; control of fungal infection vs untreated plants; read-out: PUCCRT in vivo 1 Day Protectant

Question: For `COc1ccnc(C(=O)Nc2ccc(OC3CC(C)(C)CC(C)(C)C3)cc2)c1O` [Compound 458], which pest or weed control at 100 ppm is on record?
Answer: 25 to 74%

Same assay, conditions: Puccinia; wheat plants sprayed at 100 ppm, inoculated after 24 hours; control of fungal infection vs untreated plants; read-out: PUCCRT in vivo 1 Day Protectant

Question: For `CC1(C)CC(NC(=O)c2conc2O)CC(C)(C)C1` [Compound 560], which pest or weed control at 100 ppm is on record?
Answer: 25 to 74%

System: Erysiphe graminis—ERYSGT
Assay: Powdery Mildew of Wheat, in vivo whole plant, 24 Hour Protectant
Conditions: Erysiphe; 100 ppm spray, 24 hour protectant, wheat; control of fungal infection vs untreated plants; read-out: ERYSGT in vivo 1 Day Protectant

Question: For `COc1cccc(CNC(=O)c2ncccc2O)c1` [Compound 225], which pest or weed control at 100 ppm is on record?
Answer: < 25%

Question: Which pest or weed control at 100 ppm does the source give for `O=C(Nc1cccc(Cl)c1)c1ncccc1O` [Compound 212] here?
Answer: < 25%

Same assay, conditions: Erysiphe; 100 ppm spray, wheat, 24 hour protectant; control of fungal infection vs untreated plants; read-out: ERYSGT in vivo 1 Day Protectant

Question: Which pest or weed control at 100 ppm does the source give for `COc1ccnc(C(=O)Nc2ccc(OC3CC(C)(C)CC(C)(C)C3)cc2)c1O` [Compound 458] here?
Answer: < 25%

Same assay, conditions: Erysiphe; wheat plants sprayed at 100 ppm, inoculated after 24 hours; control of fungal infection vs untreated plants; read-out: ERYSGT in vivo 1 Day Protectant

Question: Which pest or weed control at 100 ppm does the source give for `CC1(C)CC(NC(=O)c2conc2O)CC(C)(C)C1` [Compound 560] here?
Answer: < 25%

System: Septoria tritici—SEPTTR
Assay: Leaf Blotch of Wheat, in vivo whole plant, 24 Hour Protectant
Conditions: Zymoseptoria tritici, 24 h, 100 ppm spray, 24 hour protectant, wheat; control of fungal infection vs untreated plants; read-out: SEPTTR in vivo 1 Day Protectant

Question: For `COc1cccc(CNC(=O)c2ncccc2O)c1` [Compound 225], which pest or weed control at 100 ppm is on record?
Answer: < 25%

Question: Which pest or weed control at 100 ppm does the source give for `O=C(Nc1cccc(Cl)c1)c1ncccc1O` [Compound 212] here?
Answer: < 25%

Same assay, conditions: Zymoseptoria tritici, 24 h, 100 ppm spray, wheat, 24 hour protectant; control of fungal infection vs untreated plants; read-out: SEPTTR in vivo 1 Day Protectant

Question: Which pest or weed control at 100 ppm does the source give for `COc1ccnc(C(=O)Nc2ccc(OC3CC(C)(C)CC(C)(C)C3)cc2)c1O` [Compound 458] here?
Answer: < 25%

Same assay, conditions: Zymoseptoria tritici, 24 h, wheat plants sprayed at 100 ppm, inoculated after 24 hours; control of fungal infection vs untreated plants; read-out: SEPTTR in vivo 1 Day Protectant

Question: With `CC1(C)CC(NC(=O)c2conc2O)CC(C)(C)C1` [Compound 560] as the molecule, how does the pest or weed control at 100 ppm read?
Answer: 25 to 74%

System: Leptosphaeria nodorum—LEPTNO
Assay: Glume Blotch of Wheat, in vivo whole plant, 24 Hour Protectant
Conditions: 100 ppm spray, wheat, 24 hour protectant; control of fungal infection vs untreated plants

Question: For `COc1ccnc(C(=O)Nc2ccc(OC3CC(C)(C)CC(C)(C)C3)cc2)c1O` [Compound 458], which “LEPTNO in vivo 1 Day Protectant” value is on record?
Answer: + +

Same assay, conditions: Leptosphaeria; 100 ppm spray, 24 hour protectant, wheat; control of fungal infection vs untreated plants; read-out: LEPTNO in vivo 1 Day Protectant

Question: Which pest or weed control at 100 ppm does the source give for `COc1cccc(CNC(=O)c2ncccc2O)c1` [Compound 225] here?
Answer: < 25%

Question: With `O=C(Nc1cccc(Cl)c1)c1ncccc1O` [Compound 212] as the molecule, how does the pest or weed control at 100 ppm read?
Answer: < 25%

Same assay, conditions: Leptosphaeria; wheat plants sprayed at 100 ppm, inoculated after 24 hours; control of fungal infection vs untreated plants; read-out: LEPTNO in vivo 1 Day Protectant

Question: For `CC1(C)CC(NC(=O)c2conc2O)CC(C)(C)C1` [Compound 560], which pest or weed control at 100 ppm is on record?
Answer: 25 to 74%

System: not given
Assay: not given
Conditions: not given

Question: Which melting point does the source give for `COc1cccc(CNC(=O)c2ncccc2O)c1` [Compound 225] here?
Answer: 41 to 43 °C

Question: With `COc1ccnc(C(=O)Nc2ccc(OC3CC(C)(C)CC(C)(C)C3)cc2)c1O` [Compound 458] as the molecule, how does the melting point read?
Answer: 141 to 142 °C

Question: For `O=C(Nc1cccc(Cl)c1)c1ncccc1O` [Compound 212], which melting point is on record?
Answer: 131 to 132 °C

Question: For `CC1(C)CC(NC(=O)c2conc2O)CC(C)(C)C1` [Compound 560], which melting point is on record?
Answer: 186 to 188 °C

Reference: US6706740B2, “Fungicidal heterocyclic aromatic amides and their compositions, methods of use and preparation” (Dow AgroSciences LLC, priority 1999, dated 2004)
